Laboratory results from patent US9216999B2, “Substituted pyrrolo[2,3-h][1,6]naphthyridines and compositions thereof as JAK inhibitors” (priority 2011, dated 2015).
Read-outs that look alike come from different tables or passages of the source.

Experiments:
Type in all cases: biochemical
JAK1 = JAK1 (Homo sapiens (Human), UniProt P23458); assay: Enzyme assay (Assay Example^a 1), JAK1; details: ATP 100 μM
JAK2 = JAK2 (Homo sapiens (Human), UniProt O60674); assay: Enzyme assay (Assay Example^a 1), JAK2; details: ATP 100 μM
Tyk2 = Tyk2 (Homo sapiens (Human), UniProt P29597); assay: Enzyme assay (Assay Example^a 1), Tyk2; details: ATP 100 μM
JAK3 = JAK3 (Homo sapiens (Human), UniProt P52333); assay: Enzyme assay (Assay Example^a 1), JAK3
Sequence of JAK3 (P52333 whole entry): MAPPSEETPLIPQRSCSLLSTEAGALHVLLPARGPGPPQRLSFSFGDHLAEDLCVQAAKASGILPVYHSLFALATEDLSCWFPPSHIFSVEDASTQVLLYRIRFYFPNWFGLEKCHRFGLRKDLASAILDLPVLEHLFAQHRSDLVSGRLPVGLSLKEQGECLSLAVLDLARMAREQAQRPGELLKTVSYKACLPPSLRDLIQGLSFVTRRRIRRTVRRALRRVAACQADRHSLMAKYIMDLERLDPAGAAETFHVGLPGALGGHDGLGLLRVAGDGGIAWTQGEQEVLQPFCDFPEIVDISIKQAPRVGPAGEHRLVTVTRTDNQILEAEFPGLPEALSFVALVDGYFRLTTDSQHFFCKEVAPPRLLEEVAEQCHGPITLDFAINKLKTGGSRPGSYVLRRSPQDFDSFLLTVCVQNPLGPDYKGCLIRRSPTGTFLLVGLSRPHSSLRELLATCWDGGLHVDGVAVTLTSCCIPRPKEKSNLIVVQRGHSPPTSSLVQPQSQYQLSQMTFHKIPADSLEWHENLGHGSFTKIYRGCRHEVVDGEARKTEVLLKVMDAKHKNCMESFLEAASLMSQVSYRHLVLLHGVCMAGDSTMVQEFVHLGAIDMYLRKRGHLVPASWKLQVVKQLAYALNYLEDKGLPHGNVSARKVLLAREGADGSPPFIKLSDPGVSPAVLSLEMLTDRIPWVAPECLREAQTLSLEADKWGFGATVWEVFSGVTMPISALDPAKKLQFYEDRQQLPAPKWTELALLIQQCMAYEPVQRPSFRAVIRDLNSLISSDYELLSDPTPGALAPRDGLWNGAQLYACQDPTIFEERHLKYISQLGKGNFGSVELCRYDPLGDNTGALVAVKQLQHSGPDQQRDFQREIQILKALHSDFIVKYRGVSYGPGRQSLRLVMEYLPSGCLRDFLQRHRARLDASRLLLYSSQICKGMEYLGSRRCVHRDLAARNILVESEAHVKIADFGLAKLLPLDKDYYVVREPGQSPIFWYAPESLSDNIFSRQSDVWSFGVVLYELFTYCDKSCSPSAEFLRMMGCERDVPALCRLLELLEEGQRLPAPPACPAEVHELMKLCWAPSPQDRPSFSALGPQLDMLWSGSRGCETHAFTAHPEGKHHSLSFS

Sequence of Tyk2 (P29597 whole entry): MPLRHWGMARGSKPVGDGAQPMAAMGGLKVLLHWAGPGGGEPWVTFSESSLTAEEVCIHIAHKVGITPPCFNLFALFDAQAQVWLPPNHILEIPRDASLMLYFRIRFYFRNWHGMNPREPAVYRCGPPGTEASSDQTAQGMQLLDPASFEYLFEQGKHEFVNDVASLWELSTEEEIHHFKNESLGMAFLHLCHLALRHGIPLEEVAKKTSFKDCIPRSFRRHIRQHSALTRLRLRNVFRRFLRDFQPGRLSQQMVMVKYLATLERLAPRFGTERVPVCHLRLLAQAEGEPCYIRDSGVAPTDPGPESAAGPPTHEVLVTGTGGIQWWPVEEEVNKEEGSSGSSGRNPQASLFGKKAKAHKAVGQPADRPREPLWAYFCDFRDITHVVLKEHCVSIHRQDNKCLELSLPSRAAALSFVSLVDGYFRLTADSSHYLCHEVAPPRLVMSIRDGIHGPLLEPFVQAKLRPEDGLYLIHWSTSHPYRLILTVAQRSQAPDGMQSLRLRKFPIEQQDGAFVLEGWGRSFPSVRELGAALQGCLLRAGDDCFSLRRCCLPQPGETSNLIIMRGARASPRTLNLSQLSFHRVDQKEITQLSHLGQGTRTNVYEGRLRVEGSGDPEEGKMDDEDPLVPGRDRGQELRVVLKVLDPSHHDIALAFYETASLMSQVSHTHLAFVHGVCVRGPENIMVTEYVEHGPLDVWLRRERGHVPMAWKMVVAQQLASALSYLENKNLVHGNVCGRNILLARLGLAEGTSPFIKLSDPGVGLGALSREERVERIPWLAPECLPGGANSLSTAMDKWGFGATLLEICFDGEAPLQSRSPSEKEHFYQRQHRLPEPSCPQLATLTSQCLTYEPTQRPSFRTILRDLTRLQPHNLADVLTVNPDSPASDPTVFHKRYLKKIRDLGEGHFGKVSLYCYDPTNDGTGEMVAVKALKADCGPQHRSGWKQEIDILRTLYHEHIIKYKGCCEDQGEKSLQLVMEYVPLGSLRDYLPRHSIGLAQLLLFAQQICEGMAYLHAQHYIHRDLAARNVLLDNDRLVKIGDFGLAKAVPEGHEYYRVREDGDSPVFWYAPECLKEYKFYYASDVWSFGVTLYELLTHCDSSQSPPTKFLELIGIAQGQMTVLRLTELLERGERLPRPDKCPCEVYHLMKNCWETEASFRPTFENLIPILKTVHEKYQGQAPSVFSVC

SMILES | IC50 (JAK1) | IC50 (JAK2) | IC50 (Tyk2) | IC50 (JAK3; ATP 100 μM) | IC50 (JAK3; ATP 100 μM, Table^a 154) | IC50 (JAK1; Table^a 154) | IC50 (JAK2; Table^a 154) | IC50 (Tyk2; Table^a 154) | IC50 (JAK3)
CCOC(=O)C=C1CCC(c2nnn3cnc4[nH]ccc4c23)CC1 (stereo not drawn) [compound 436, ethyl 2-[4-(7H-pyrrolo[3,2-e][1,2,3]triazolo[1,5-c]pyrimidin-1-yl)cyclohexylidene]acetate] | 0.035 µM | 0.17 µM | > 1 µM | > 1 µM |  |  |  |  | 
N#CCOc1ccc(CN2CCC(c3nnn4cnc5[nH]ccc5c34)CC2)cc1 [compound 213, 2-(4-{[4-(7H-pyrrolo[3,2-e][1,2,3]triazolo[1,5-c]pyrimidin-1-yl)piperidin-1-yl]methyl}phenoxy)acetonitrile] | 0.024 µM | 0.19 µM | > 1 µM | > 1 µM |  |  |  |  | 
c1cc2c(ncn3nnc([C@H]4CC[C@H](NN5CCOCC5)CC4)c23)[nH]1 [139b] |  |  |  |  | > 1 µM | 0.021 µM | 0.076 µM | 0.5 µM | 
Cc1ccc(CNC[C@H]2CC[C@H](c3nnn4cnc5[nH]ccc5c34)CC2)s1 [compound 106] |  |  |  |  |  | 0.0019 µM | 0.041 µM | 0.0036 µM | 0.28 µM
c1cc2c(ncn3nnc([C@H]4CC[C@H](CNC5CCCC5)CC4)c23)[nH]1 [compound 284, N-{[trans-4-(7H-pyrrolo[3,2-e][1,2,3]triazolo[1,5-c]pyrimidin-1-yl)cyclohexyl]methyl}cyclopentanamine] | 0.017 µM | 0.15 µM | 0.32 µM | > 1 µM |  |  |  |  | 
OCCN(C[C@H]1CC[C@H](c2nnn3cnc4[nH]ccc4c23)CC1)C1CCCCC1 [compound 306, 2-({[trans-4-(7H-pyrrolo[3,2-e][1,2,3]triazolo[1,5-c]pyrimidin-1-yl)cyclohexyl]methyl}(cyclohexyl)amino)ethanol] | 0.015 µM | 0.054 µM | 0.62 µM | > 1 µM |  |  |  |  | 
O=C(N[C@@H]1CCN(C[C@H]2CC[C@H](c3nnn4cnc5[nH]ccc5c34)CC2)C1)C(F)(F)F [compound 320, N-((R)-1-{[trans-4-(7H-pyrrolo[3,2-e][1,2,3]triazolo[1,5-c]pyrimidin-1-yl)cyclohexyl]methyl}pyrrolidin-3-yl)-2,2,2-trifluoroacetamide] | 0.0076 µM | 0.057 µM | 0.86 µM | > 1 µM |  |  |  |  | 
N#CCc1ccc(NC[C@H]2CC[C@H](c3nnn4cnc5[nH]ccc5c34)CC2)cc1 [compound 264, 2-[4-({[trans-4-(7H-pyrrolo[3,2-e][1,2,3]triazolo[1,5-c]pyrimidin-1-yl)cyclohexyl]methyl}amino)phenyl]acetonitrile] | 0.011 µM | 0.032 µM | > 1 µM | > 1 µM |  |  |  |  | 
CN[C@H]1CC[C@H](c2nnn3cnc4[nH]ccc4c23)CC1 [398b, trans-N-methyl-4-(7H-pyrrolo[3,2-e][1,2,3]triazolo[1,5-c]pyrimidin-1-yl)cyclohexanamine] | 0.029 µM | 0.11 µM | 0.75 µM | > 1 µM |  |  |  |  | 
O[C@H]1CC[C@H](NC[C@H]2CC[C@H](c3nnn4cnc5[nH]ccc5c34)CC2)CC1 [compound 305, trans-4-({[trans-4-(7H-pyrrolo[3,2-e][1,2,3]triazolo[1,5-c]pyrimidin-1-yl)cyclohexyl]methyl}amino)cyclohexanol] | 0.046 µM | 0.29 µM | > 1 µM | > 1 µM |  |  |  |  | 

Continued, in another order:

IC50 (JAK1) | IC50 (JAK2) | IC50 (Tyk2) | IC50 (JAK3; ATP 100 μM) | IC50 (JAK3; ATP 100 μM, Table^a 154) | SMILES | IC50 (JAK1; Table^a 154) | IC50 (JAK2; Table^a 154) | IC50 (Tyk2; Table^a 154) | IC50 (JAK3)
0.012 µM | 0.068 µM | 0.39 µM | 0.52 µM |  | c1cc2c(ncn3nnc([C@H]4CC[C@H](CNC5CSC5)CC4)c23)[nH]1 [compound 344, N-{[trans-4-(7H-pyrrolo[3,2-e][1,2,3]triazolo[1,5-c]pyrimidin-1-yl)cyclohexyl]methyl}thietan-3-amine] |  |  |  | 
0.039 µM | 0.081 µM | 0.97 µM | 0.62 µM |  | c1cc2c(ncn3nnc(C4CCN(Cc5cocn5)CC4)c23)[nH]1 [compound 219, 4-{[4-(7H-pyrrolo[3,2-e][1,2,3]triazolo[1,5-c]pyrimidin-1-yl)piperidin-1-yl]methyl}oxazole] |  |  |  | 
0.0021 µM | 0.0081 µM | 0.037 µM | 0.27 µM |  | N#CCNC[C@H]1CC[C@H](c2nnn3cnc4[nH]ccc4c23)CC1 [compound 259, 2-({[trans-4-(7H-pyrrolo[3,2-e][1,2,3]triazolo[1,5-c]pyrimidin-1-yl)cyclohexyl]methyl}amino)acetonitrile] |  |  |  | 
 |  |  |  | 0.17 µM | Fc1ccc(CN2CCC(c3nnn4cnc5[nH]ccc5c34)CC2)cc1F [compound 166, 1-[1-(3,4-difluorobenzyl)piperidin-4-yl]-7H-pyrrolo[3,2-e][1,2,3]triazolo[1,5-c]pyrimidine] | 0.0053 µM | 0.023 µM | 0.49 µM | 
0.0017 µM | 0.016 µM | 0.049 µM | 0.49 µM |  | OC1CN(C[C@H]2CC[C@H](c3nnn4cnc5[nH]ccc5c34)CC2)C1 [compound 257, 1-{[trans-4-(7H-pyrrolo[3,2-e][1,2,3]triazolo[1,5-c]pyrimidin-1-yl)cyclohexyl]methyl}azetidin-3-ol] |  |  |  | 
0.02 µM | 0.063 µM | 0.43 µM | > 1 µM |  | OC1CCN(C[C@H]2CC[C@H](c3nnn4cnc5[nH]ccc5c34)CC2)CC1 [compound 271, 1-{[trans-4-(7H-pyrrolo[3,2-e][1,2,3]triazolo[1,5-c]pyrimidin-1-yl)cyclohexyl]methyl}piperidin-4-ol] |  |  |  | 
0.024 µM | 0.1 µM | 0.31 µM | 0.94 µM |  | COCC1(NC[C@H]2CC[C@H](c3nnn4cnc5[nH]ccc5c34)CC2)CC1 [compound 293, N-{[trans-4-(7H-pyrrolo[3,2-e][1,2,3]triazolo[1,5-c]pyrimidin-1-yl)cyclohexyl]methyl}-1-(methoxymethyl)cyclopropanamine] |  |  |  | 
0.017 µM | 0.035 µM | 0.52 µM | 0.79 µM |  | O/N=C/[C@H]1CC[C@H](c2nnn3cnc4[nH]ccc4c23)CC1 [compound 429, 4-(7H-Pyrrolo[3,2-e][1,2,3]triazolo[1,5-c]pyrimidin-1-yl)cyclohexanecarbaldehyde oxime] |  |  |  | 
0.0099 µM | 0.051 µM | 0.29 µM | 0.75 µM |  | NC(=O)[C@H]1CC[C@H](c2nnn3cnc4[nH]ccc4c23)CC1 [compound 348, trans-4-(7H-pyrrolo[3,2-e][1,2,3]triazolo[1,5-c]pyrimidin-1-yl)cyclohexanecarboxamide] |  |  |  | 
0.007 µM | 0.054 µM | 0.55 µM | 0.79 µM |  | OCC1(NC[C@H]2CC[C@H](c3nnn4cnc5[nH]ccc5c34)CC2)CC1 [compound 327, [1-({[trans-4-(7H-pyrrolo[3,2-e][1,2,3]triazolo[1,5-c]pyrimidin-1-yl)cyclohexyl]methyl}amino)cyclopropyl]methanol] |  |  |  | 
 |  |  |  | 0.03 µM | N#CCCN(CCC#N)C[C@H]1CC[C@H](c2nnn3cnc4[nH]ccc4c23)CC1 [compound 180, 3,3′-({[trans-4-(7H-pyrrolo[3,2-e][1,2,3]triazolo[1,5-c]pyrimidin-1-yl)cyclohexyl]methyl}azanediyl)dipropanenitrile] | 0.0013 µM | 0.0019 µM | 0.022 µM | 
